The values below come from US20250136555A1 (HARBIN MEDISAN PHARMACEUTICAL CO., LTD., priority 2022, published 2025).

Data set [1] deals with T1, PPARα (Homo sapiens, UniProt Q07869).
T1 construct: expressed in transfected cells; host or cells: COS-7
T1 sequence (Q07869 239-466 limits assumed): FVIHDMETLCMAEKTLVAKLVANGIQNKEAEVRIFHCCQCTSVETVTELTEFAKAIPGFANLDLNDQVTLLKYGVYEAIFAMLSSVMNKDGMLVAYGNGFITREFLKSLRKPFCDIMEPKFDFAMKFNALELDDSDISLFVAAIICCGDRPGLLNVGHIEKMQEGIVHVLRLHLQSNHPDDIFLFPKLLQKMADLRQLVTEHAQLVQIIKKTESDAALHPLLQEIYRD
The data set can be described thus: GAL4 hybrid reporter gene method, PPARα agonistic activity. It counts as cell-based. The conditions noted are these: Cos-7 cells, Gal4-PPARα (LBD); GW7647 10 nM = 100%; 16 h.
Procedure: Cos-7 cells (African green monkey kidney fibroblasts, commonly used tool cells) were cultured in a 10-cm cell culture dish with a DMEM complete medium containing 10% fetal bovine serum. When growing at a density of about 70%, the cells were ready for transfection. […] The working solution described above was then combined with 8 mL of the DMEM complete medium, and the mixture was added to the cell culture dish for cell transfection. After 4 h of transfection, the cells were digested, resuspended, and seeded into a 96-well plate at 25,000 cells/well. […] 10 μL of a reporter gene detection solution (purchased from Shanghai Beyotime Biological Tech. Co., Ltd.) was added. After the resulting solution was mixed and reacted, biological fluorescence was detected by using a multifunctional microplate reader, and corresponding half maximal effective concentration (EC50) values were calculated according to the detection values. […] Transfection working solutions for different nuclear receptors were prepared and added into COS-7 cells. The preparation method for the transfection working solution was as follows: the constructed pBIND-Gal4-PPARα (LBD) (or pBIND-Gal4-PPARδ (LBD) plasmid or pBIND-Gal4-PPARγ (LBD) plasmid or pBIND-Gal4-RARα (LBD) plasmid or pBIND-Gal4-RARγ (LBD) plasmid or pBIND-Gal4-RARβ (LBD) plasmid or pBIND-Gal4-RORα (LBD) plasmid or pBIND-Gal4-RORγ (LBD) plasmid or pBIND-Gal4-RORβ (LBD) plasmid or pBIND-Gal4-FXR (LBD) plasmid or pBIND-Gal4-RXRα.

Data set [2] concerns the target T2, PPARγ (Homo sapiens, UniProt P37231).
T2 construct: expressed in transfected cells; host or cells: COS-7
T2 sequence (P37231 238-503 limits assumed): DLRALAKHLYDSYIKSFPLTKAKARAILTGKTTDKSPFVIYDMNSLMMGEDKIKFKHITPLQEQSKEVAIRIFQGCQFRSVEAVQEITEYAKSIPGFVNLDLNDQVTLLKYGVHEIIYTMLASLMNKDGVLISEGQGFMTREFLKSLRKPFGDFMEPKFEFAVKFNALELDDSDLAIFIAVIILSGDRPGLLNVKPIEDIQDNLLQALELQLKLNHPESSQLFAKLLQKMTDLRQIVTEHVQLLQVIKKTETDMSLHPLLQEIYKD
The data set can be described thus: GAL4 hybrid reporter gene method, PPARγ agonistic activity. It counts as cell-based. The settings on record: Cos-7 cells, Gal4-PPARγ (LBD); Rosiglitazone 1 μM = 100%; 16 h.

In data set [3] the test system is non-PPAR nuclear receptors. The data set can be described thus: GAL4 hybrid reporter gene method, non-PPAR nuclear receptors (summary statement). The format is cell-based. The conditions noted are these: 1 μM. Here is the method:
Reporter gene plasmids for different nuclear receptors were constructed by referring to the method in the literature (Journal of Medicinal Chemistry 2022, 65, 2571-2592). Transfection working solutions for different nuclear receptors were prepared and added into COS-7 cells. The preparation method for the transfection working solution was as follows: the constructed pBIND-Gal4-PPARα (LBD) (or pBIND-Gal4-PPARδ (LBD) plasmid or pBIND-Gal4-PPARγ (LBD) plasmid or pBIND-Gal4-RARα (LBD) plasmid or pBIND-Gal4-RARγ (LBD) plasmid or pBIND-Gal4-RARβ (LBD) plasmid or pBIND-Gal4-RORα (LBD) plasmid or pBIND-Gal4-RORγ (LBD) plasmid or pBIND-Gal4-RORβ (LBD) plasmid or pBIND-Gal4-FXR (LBD) plasmid or pBIND-Gal4-RXRα. (LBD) plasmid or pBIND-Gal4-RXRγ (LBD) plasmid or pBIND-Gal4-RXRβ (LBD) plasmid or pBIND-Gal4-VDR (LBD) plasmid or pBIND-Gal4-LXRα (LBD) plasmid or pBIND-Gal4-LXRβ (LBD) plasmid or pBIND-Gal4-[…] (LBD) plasmid or pBIND-Gal4-PXR (LBD) plasmid or pBIND-Gal4-CAR (LBD) plasmid), 15 μg of pGL4.35-9×Gal4 UAS plasmid (purchased from Promega (Beijing) Biotech Co., Ltd.), and 60 μL of a transfection reagent ([…], purchased from Wuhan ABclonal Biotechnology Co., Ltd.) were added to 2 mL of Opti-MEM, the mixture was left to stand at room temperature for 15 min, and then the working solution was obtained.

A short description of data set [4]: Metabolic stability in human liver microsomes. It counts as in vitro ADME. Here is the method: A solution of the compound in acetonitrile at a concentration of 500 μM was prepared and diluted in 0.1 M potassium phosphate solution to obtain a 1.5 μM drug working solution. The drug working solution was co-incubated with a human liver microsome working solution at a final concentration of 0.75 mg/mL and a NADPH solution (at a final concentration of 550 μM), and the incubation was terminated by adding an acetonitrile solution at 0 min, 15 min, 30 min, 45 min, and 60 min, respectively. The remaining amount of the compound remained in the system at each time point was detected by using LC/MS, the absolute value k of the slope was measured by plotting the natural logarithm of the percentage of the remaining amount of the compound over time, and the calculation was performed according to the formula: T1/2 (half-life)=ln2/k=0.693/k.

The nature of data set [5]: Pharmacokinetic evaluation in rats. The conditions noted are these: for AUC(0-inf): read-out: Area under the curve AUC(0-∞); for Tmax: read-out: Peak time Tmax. It counts as in vivo, SD rats. Here is the method: Animals: 6 SPF-grade male SD rats were purchased from Beijing Vital River Laboratory Animal Technology Co., Ltd.
Grouping: rats were divided into 2 groups, with 3 rats in each group; one group was an oral administration group, and the other group was an intravenous injection group. The dose in the oral administration group was 10 mpk, and the dose in the intravenous injection group was 2 mpk.
Experimental procedures: after rats in the intravenous injection group were administered by tail vein injection, about 0.25 mL of blood was collected from the orbit at 0.083 h, 0.25 h, 0.5 h, 1 h, 2 h, 4 h, 6 h, 8 h, and 24 h, respectively, and then heparin sodium was rapidly added for anticoagulation after blood collection. The blood was placed on ice after collection. Rats in the oral administration group were fasted for 12 h before administration and fed 4 h after administration. After the rats were administered orally, about 0.25 mL of blood was collected from the orbit at 0.083 h, 0.25 h, 0.5 h, 1 h, 2 h, 4 h, 6 h, 8 h, and 24 h, respectively, and then heparin sodium was rapidly added for anticoagulation after blood collection. The blood was placed on ice after collection. All samples were centrifuged at 6000 r/min for 3 min in a low-temperature centrifuge, and plasma was obtained after separation. The content of the compound in the plasma was detected via LC-MS/MS-18, and relevant pharmacokinetic parameters were calculated according to the plasma concentration data of different time points.

The mark [6] stands for this setting: human liver microsomes 0.75 mg/mL, NADPH.
Where [7] appears, read: male, SD, rat, plasma, 2 mg/kg, intravenous injection, 2 mpk.
Setting [8] is: male, SD, rat, plasma, 10 mg/kg, oral administration, 10 mpk.

Entries after “also recorded” stand apart in the source; their conditions may differ. Where two headings read alike, the source gives them in different places.

In the case of `Cc1cc(CN2C(=O)CN(c3ccc(C(F)(F)F)cc3)C2=O)cc(C)c1OC(C)(C)C(=O)O` [Compound 1, 2-(4-((2,5-Dioxo-3-(4-(trifluoromethyl)phenyl)imidazolidin-1-yl)methyl)-2,6-dimethylphenoxy)-2-methylpropionic Acid], in data set [1], the EC50 was found to be 0.7 nM and the “PPARα EC50 (nM)” value is “picomolar levels; also recorded: low nanomolar levels”. This molecule returned an EC50 in data set [2] of 1660 nM. Also, the “agonistic effect on non-PPAR nuclear receptors” value in data set [3] is on record as “no significant agonistic effect”. Also, the “metabolic stability in human liver microsomes” value in data set [4] (human liver microsomes) is given as “very good metabolic stability”. Moreover, in data set [4] (setting [6]), the intrinsic clearance (CLint scaled) worked out at 6.2 mL/min/kg and the half-life is > 120 min. Moreover, the “pharmacokinetic properties” value in data set [5] (in vivo) is “good pharmacokinetic properties”. Besides, in data set [5] (intravenous injection, 2 mpk), the “Half-life T1/2” value came out at 4.82 ± 1.05 h and the “Peak concentration Cmax” value is reported as 4306.67 ± 1546.13 ng/mL. Besides, in data set [5] (setting [7]), the AUC(0-inf) is 4250 ± 1240 ng·h/mL and the Tmax stood at 0.08 h. Also, in data set [5] (setting [8]), the AUC(0-inf) amounted to 22300 ± 3550 ng·h/mL and the Tmax is 2.25 ± 3.25 h. Further, the bioavailability in data set [5] (male, SD, rat, plasma, 10 mg/kg, oral administration, 10 mpk, read-out: Bioavailability F (%)) was 104.7 ± 0.17%. In data set [5] (oral administration, 10 mpk), the “Half-life T1/2” value is 6.72 ± 1.39 h and the “Peak concentration Cmax” value came out at 2816.67 ± 1020.41 ng/mL.
